Values of other authors, collected in patent publication US9873661B2, “Small molecule malarial Aldolase-TRAP enhancers and glideosome inhibitors” (NEW YORK UNIVERSITY, priority 2011, dated 2018).

Molecular target: T1, plant plasma membrane H+-ATPase (PMA) and 14-3-3 (Nicotiana tabacum, UniProt P93343)
T1 sequence (P93343 1-260): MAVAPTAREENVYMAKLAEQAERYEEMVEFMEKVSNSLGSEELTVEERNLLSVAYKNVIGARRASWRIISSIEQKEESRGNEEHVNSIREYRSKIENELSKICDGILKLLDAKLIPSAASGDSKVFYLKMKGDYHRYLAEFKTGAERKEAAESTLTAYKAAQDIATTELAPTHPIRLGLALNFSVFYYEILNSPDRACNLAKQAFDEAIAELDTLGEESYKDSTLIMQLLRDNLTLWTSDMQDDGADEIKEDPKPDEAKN

Substance: fusioccin
- increase of binding affinity between PMA and 14-3-3: approximately 90 fold
